Our source for the GI50 and TGI values is PubChem BioAssay (NCI).

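Protocol summary: plate cells (96-well), add compound at 5 concentrations, incubate 48 h, interpolate endpoints linearly. GI50 marks 50% less growth. TGI marks complete inhibition of growth.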

Among the test systems are HCT-116 colon; HCT-15 colon; HL-60(TB) leukemia; HOP-92 NSCLC; MDA-MB-231 breast; NCI-H522 lung; OVCAR-3 ovarian; SK-MEL-5 melanoma; SNB-75 CNS; OVCAR-4 ovarian.
Experiment in all cases: NCI anticancer screen, dose series, 48 h

For the compound `COc1cccc(NC(=O)c2sc3nc4c(cc3c2N)C(=O)CCC4)c1`, the GI50 in the experiment on HCT-116 colon is 0.0745 µM; with HCT-15 colon it was 0.0686 µM; in the experiment on HL-60(TB) leukemia, 0.144 µM; in the experiment on HOP-92 NSCLC, 0.0482 µM; in the experiment on MDA-MB-231 breast, 0.209 µM; with NCI-H522 lung, 0.0499 µM. In addition, the GI50 in the experiment on OVCAR-3 ovarian was 0.0612 µM; in the experiment on SK-MEL-5 melanoma, 0.064 µM; in the experiment with SNB-75 CNS, 0.0579 µM. Also, the TGI is above 100 µM in the experiment on HCT-116 colon; above 100 µM with HCT-15 colon; above 100 µM with HL-60(TB) leukemia; 26.8 µM with HOP-92 NSCLC; 7.59 µM in the experiment with MDA-MB-231 breast; 2.41 µM in the experiment on NCI-H522 lung. Moreover, the TGI was 0.653 µM in the experiment with OVCAR-3 ovarian, above 100 µM with SK-MEL-5 melanoma and 12.7 µM in the experiment on SNB-75 CNS.

As to `N#CCN/C=C\C(=O)c1ccc(Cl)cc1`, the GI50 was 29.9 µM in the experiment with HCT-116 colon; 14.2 µM with HL-60(TB) leukemia; 31.8 µM with MDA-MB-231 breast; above 100 µM in the experiment on NCI-H522 lung; 17.7 µM with OVCAR-3 ovarian; 76.9 µM with OVCAR-4 ovarian. Further, in the experiment with SK-MEL-5 melanoma, the GI50 was 17.6 µM. Also, the TGI with HCT-116 colon was above 100 µM; with HL-60(TB) leukemia it was above 100 µM; with MDA-MB-231 breast, above 100 µM; in the experiment with NCI-H522 lung, above 100 µM; with OVCAR-3 ovarian it was 59.1 µM; in the experiment with OVCAR-4 ovarian, above 100 µM. The compound also showed a TGI in the experiment with SK-MEL-5 melanoma of 38.8 µM.

As to `COc1ccc(/C=N\Nc2ccc([N+](=O)[O-])cn2)cc1OC`, the GI50 was above 100 µM in the experiment with HCT-15 colon; 6.82 µM in the experiment with MDA-MB-231 breast; above 100 µM in the experiment on NCI-H522 lung; above 100 µM in the experiment on SK-MEL-5 melanoma; 2.9 µM in the experiment with SNB-75 CNS. The TGI in the experiment with HCT-15 colon is above 100 µM; in the experiment on MDA-MB-231 breast, above 100 µM; in the experiment with NCI-H522 lung, above 100 µM; in the experiment with SK-MEL-5 melanoma it was above 100 µM; in the experiment on SNB-75 CNS it was 16.4 µM.

Regarding `COc1cc(CNc2ccccc2C(=O)N2CCN(C(=O)c3cc(-c4cc(OC)c(OC)c(OC)c4)n4nc(-c5ccccc5)cc4n3)CC2)cc(OC)c1OC`, the GI50 is 4.25 µM in the experiment on HCT-15 colon; 1.98 µM in the experiment with HL-60(TB) leukemia; 7.02 µM in the experiment with MDA-MB-231 breast; 2.22 µM with NCI-H522 lung; 2.69 µM with OVCAR-3 ovarian; 4.37 µM with OVCAR-4 ovarian. For the same compound, the GI50 in the experiment on SK-MEL-5 melanoma is 1.58 µM; in the experiment with SNB-75 CNS, 1.98 µM. Also, the TGI with HCT-15 colon is above 100 µM; in the experiment on HL-60(TB) leukemia it was above 100 µM; in the experiment on MDA-MB-231 breast it was 67.8 µM; in the experiment on NCI-H522 lung, above 100 µM; in the experiment on OVCAR-3 ovarian, 9.59 µM; in the experiment with OVCAR-4 ovarian it was above 100 µM. Besides, the values for the TGI in the experiment with SK-MEL-5 melanoma and in the experiment with SNB-75 CNS were 3.91 µM and above 100 µM, respectively.

As for `Cc1cn2c(/C=N/N=C(N)N)c(-c3cccs3)nc2s1`, the GI50 was 1.35 µM in the experiment on HCT-116 colon; 4.3 µM in the experiment on HCT-15 colon; 1.9 µM in the experiment with MDA-MB-231 breast; 16.9 µM with NCI-H522 lung; 1.91 µM with OVCAR-3 ovarian; 0.376 µM with SK-MEL-5 melanoma. Besides, the TGI in the experiment on HCT-116 colon worked out at 2.63 µM; in the experiment with HCT-15 colon, 18.4 µM; in the experiment on MDA-MB-231 breast, 5.79 µM; with NCI-H522 lung, 47.9 µM; in the experiment on OVCAR-3 ovarian, 5.5 µM; with SK-MEL-5 melanoma it was 2.19 µM.

As for `O=Cc1cccc2c1Oc1c(cccc1C(=O)O)S2`, the TGI with HCT-116 colon, in the experiment with HCT-15 colon, in the experiment with HOP-92 NSCLC, in the experiment with MDA-MB-231 breast, in the experiment with NCI-H522 lung and in the experiment on OVCAR-3 ovarian was above 100 µM in each case. The TGI in the experiment on OVCAR-4 ovarian, in the experiment on SK-MEL-5 melanoma and with SNB-75 CNS was above 100 µM in each case.

As for `CCN(CC)CCCNC(=O)c1c2c(n3ccccc13)C(=O)c1ncccc1C2=O`, the GI50 with HCT-116 colon was 0.25 µM; with HCT-15 colon, 0.935 µM; in the experiment on HOP-92 NSCLC it was 2.22 µM; in the experiment with MDA-MB-231 breast it was 0.404 µM; in the experiment with NCI-H522 lung, 0.515 µM; with OVCAR-3 ovarian, 0.134 µM. The GI50 is 0.164 µM with OVCAR-4 ovarian, 0.275 µM in the experiment with SK-MEL-5 melanoma and 1.5 µM in the experiment on SNB-75 CNS. Besides, the TGI in the experiment with HCT-116 colon turned out to be 1.09 µM; with HCT-15 colon it was 2.54 µM; with HOP-92 NSCLC, 4.87 µM; in the experiment on MDA-MB-231 breast, 9.73 µM; in the experiment on NCI-H522 lung, 2.32 µM; in the experiment on OVCAR-3 ovarian, 0.938 µM. For the same compound, the TGI with OVCAR-4 ovarian stood at 0.903 µM; in the experiment on SK-MEL-5 melanoma, 1.24 µM; in the experiment on SNB-75 CNS, 2.93 µM.

For the compound `Cc1cc(C)c(Cn2cnc3c(Cl)ncnc32)c(C)c1CCl`, the GI50 with HCT-116 colon is 68.8 µM; with HCT-15 colon it was 0.343 µM; in the experiment on HL-60(TB) leukemia it was 27.2 µM; with MDA-MB-231 breast it was above 100 µM; with NCI-H522 lung, above 100 µM; in the experiment on OVCAR-3 ovarian, 18.1 µM. Moreover, the GI50 in the experiment with SK-MEL-5 melanoma was above 100 µM. Further, the TGI with HCT-116 colon was above 100 µM; with HCT-15 colon it was 18.8 µM; in the experiment with HL-60(TB) leukemia, 59.9 µM; in the experiment on MDA-MB-231 breast, above 100 µM; in the experiment on NCI-H522 lung, above 100 µM; with OVCAR-3 ovarian, 53.9 µM. This compound registered a TGI with SK-MEL-5 melanoma above 100 µM.

`SCCSCCCSCCS`: the TGI is above 100 µM with HCT-116 colon; above 100 µM with HCT-15 colon; 45.6 µM in the experiment with HL-60(TB) leukemia; above 100 µM in the experiment with MDA-MB-231 breast; above 100 µM in the experiment with NCI-H522 lung; above 100 µM in the experiment with OVCAR-3 ovarian. Also, the TGI with OVCAR-4 ovarian was 98.2 µM; in the experiment on SK-MEL-5 melanoma it was above 100 µM; in the experiment on SNB-75 CNS, above 100 µM.

As for `CCC(CNc1cc(OC)cc2cccnc12)NC1CCCCC1` (centres undefined), the GI50 in the experiment on HCT-116 colon was 10.9 µM; with HCT-15 colon it was 34.9 µM; with HL-60(TB) leukemia it was 15.2 µM; in the experiment on MDA-MB-231 breast, 40.7 µM; with OVCAR-3 ovarian it was 17.3 µM; with OVCAR-4 ovarian, 6.2 µM. In addition, the values for the GI50 with SK-MEL-5 melanoma and in the experiment with SNB-75 CNS were 15.8 µM and 21.3 µM, respectively. Moreover, the TGI in the experiment on HCT-116 colon was 27.9 µM; in the experiment on HCT-15 colon, above 100 µM; with HL-60(TB) leukemia, 41.7 µM; in the experiment on MDA-MB-231 breast it was above 100 µM; in the experiment on OVCAR-3 ovarian it was 65.5 µM; in the experiment on OVCAR-4 ovarian, above 100 µM. Further, the TGI in the experiment with SK-MEL-5 melanoma was 30.6 µM; in the experiment on SNB-75 CNS, above 100 µM.

Take `O=Cc1ccc(-c2ccc(-c3nc4ccccc4o3)cc2)o1`: the GI50 in the experiment on HCT-116 colon was 27.1 µM; in the experiment on HCT-15 colon it was 19.7 µM; in the experiment with HL-60(TB) leukemia, above 100 µM; in the experiment with MDA-MB-231 breast, 21 µM; with NCI-H522 lung, 24.4 µM; in the experiment on OVCAR-3 ovarian it was 24.1 µM. The GI50 in the experiment on OVCAR-4 ovarian is above 100 µM; with SK-MEL-5 melanoma it was 22 µM; with SNB-75 CNS, 81.9 µM. Moreover, the TGI with HCT-116 colon is 80.4 µM; with HCT-15 colon, 53.4 µM; in the experiment on HL-60(TB) leukemia it was above 100 µM; in the experiment on MDA-MB-231 breast, 61.6 µM; with NCI-H522 lung, 59.3 µM; with OVCAR-3 ovarian, 61.9 µM. Also, the TGI with OVCAR-4 ovarian was above 100 µM; with SK-MEL-5 melanoma, 62 µM; in the experiment on SNB-75 CNS, above 100 µM.

For `COC(=O)C1[C@H](c2cc(OC)c(OC)c(OC)c2)OC(=O)C1(C(=O)OC)C(=O)c1ccc2c(c1)OCO2` (some centres undefined), the TGI in the experiment on HCT-116 colon, in the experiment on HCT-15 colon, with HL-60(TB) leukemia, in the experiment with HOP-92 NSCLC, with NCI-H522 lung and with OVCAR-3 ovarian was above 100 µM each time. For the same compound, the TGI with OVCAR-4 ovarian, in the experiment on SK-MEL-5 melanoma and in the experiment on SNB-75 CNS was above 100 µM throughout.

`O=[N+]([O-])CCc1cccc([N+](=O)[O-])c1`: the TGI in the experiment on HCT-116 colon, in the experiment on HCT-15 colon, in the experiment with HL-60(TB) leukemia, with HOP-92 NSCLC, with NCI-H522 lung and in the experiment with OVCAR-3 ovarian was above 100 µM throughout. The TGI in the experiment with OVCAR-4 ovarian, with SK-MEL-5 melanoma and in the experiment with SNB-75 CNS was above 100 µM in each case.

Take `Cc1cc(N(CCC#N)S(C)(=O)=O)ccc1C=Nc1ccc(C(=O)NN2C(=O)/C(=C/c3ccc(N(CCC#N)CCC#N)cc3C)N=C2c2cc([N+](=O)[O-])ccc2Cl)cc1`: the TGI in the experiment on HCT-116 colon, with HCT-15 colon, in the experiment with HL-60(TB) leukemia, in the experiment on HOP-92 NSCLC, in the experiment with NCI-H522 lung and in the experiment on OVCAR-3 ovarian was above 100 µM each time. For the same compound, the TGI in the experiment with OVCAR-4 ovarian, in the experiment on SK-MEL-5 melanoma and with SNB-75 CNS was above 100 µM each time.

For the compound `COc1cc(-c2nc(-c3nc4ccccc4[nH]3)cc3c2[nH]c2ccccc23)cc(OC)c1OC`, the GI50 in the experiment on HCT-116 colon is 3.95 µM; in the experiment with HCT-15 colon, 4.14 µM; in the experiment with HL-60(TB) leukemia, 4.37 µM; in the experiment on HOP-92 NSCLC, 0.526 µM; in the experiment with MDA-MB-231 breast, 8.38 µM; with NCI-H522 lung, 3.51 µM. Also, the GI50 with OVCAR-3 ovarian is 6.2 µM; with OVCAR-4 ovarian, 47.4 µM; with SK-MEL-5 melanoma, 2.99 µM. Further, the TGI with HCT-116 colon was above 100 µM; in the experiment on HCT-15 colon it was above 100 µM; in the experiment on HL-60(TB) leukemia, above 100 µM; in the experiment on HOP-92 NSCLC it was 5.38 µM; in the experiment with MDA-MB-231 breast, above 100 µM; in the experiment on NCI-H522 lung, above 100 µM. In addition, the TGI with OVCAR-3 ovarian, in the experiment with OVCAR-4 ovarian and in the experiment with SK-MEL-5 melanoma was above 100 µM in each case.
